Results: patent US10799507B2, “5-(7H-pyrrolo[2,3-d]pyrimidin-4-yl)-5-azaspiro[2.5]octane-8-carboxylic acid derivatives as novel JAK kinase inhibitors” (LEO Pharma A/S, priority 2017, dated 2020)

What was measured:
Format in all cases: biochemical
[1] = target: JAK1 (Homo sapiens (Human), UniProt P23458); experiment: JAK kinase assay (HTRF), JAK1; settings: catalytic domain, ATP at Km (7 μM)
Procedure, shortened: (§1)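 Catalytic-domain human JAK1 (GST-tagged, aa 850-1154) or His-tagged JAK2, baculovirus-expressed, phosphorylated 1 µM biotinylated TK peptide at Km ATP (JAK1 7 µM, 10 mM MgCl2, 50 nM SEB; JAK2 4 µM, 5 mM MgCl2) in pH 7.0 Hepes, 20-30 min RT. EDTA stop; overnight streptavidin-XL665/cryptate HTRF read.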

[2] = target: JAK2 (Homo sapiens (Human), UniProt O60674); experiment: JAK kinase assay (HTRF), JAK2; settings: catalytic domain, ATP at Km (4 μM)
Sequence of JAK2 (O60674 849-1124): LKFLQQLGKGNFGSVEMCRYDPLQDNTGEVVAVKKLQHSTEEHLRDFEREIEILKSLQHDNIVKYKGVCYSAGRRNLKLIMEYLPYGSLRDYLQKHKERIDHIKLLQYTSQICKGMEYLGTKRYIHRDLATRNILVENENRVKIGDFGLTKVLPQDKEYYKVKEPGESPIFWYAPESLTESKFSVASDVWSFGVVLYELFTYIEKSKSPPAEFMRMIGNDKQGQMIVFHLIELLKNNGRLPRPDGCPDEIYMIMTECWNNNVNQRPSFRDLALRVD
Procedure, shortened: as §1

[3] = target: JAK3 (Homo sapiens (Human), UniProt P52333); experiment: JAK kinase assay (HTRF), JAK3; settings: catalytic domain, ATP at Km (2 μM)
Sequence of JAK3 (P52333 822-1111): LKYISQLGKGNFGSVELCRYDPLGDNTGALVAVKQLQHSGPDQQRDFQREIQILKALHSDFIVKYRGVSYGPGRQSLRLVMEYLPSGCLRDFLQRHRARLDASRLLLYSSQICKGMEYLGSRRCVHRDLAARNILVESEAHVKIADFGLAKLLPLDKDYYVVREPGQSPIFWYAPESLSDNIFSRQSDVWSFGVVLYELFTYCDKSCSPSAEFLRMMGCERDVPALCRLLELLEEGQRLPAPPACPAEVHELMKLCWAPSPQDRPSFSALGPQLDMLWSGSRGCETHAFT
Procedure, shortened: (§2)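 Catalytic-domain human kinases, GST-tagged TYK2 (aa 871-1187) and His-tagged JAK3, phosphorylate 1 μM TK Substrate-Biotin for 20-30 min at RT in 50 mM Hepes pH 7.0, 5 mM MgCl2, ATP at Km (TYK2 13 μM with 50 nM SEB; JAK3 2 μM). Phosphorylation detected by HTRF.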

[4] = target: TYK2 (Homo sapiens (Human), UniProt P29597); experiment: JAK kinase assay (HTRF), TYK2; settings: catalytic domain, ATP at Km (13 μM)
Sequence of TYK2 (P29597 871-1187): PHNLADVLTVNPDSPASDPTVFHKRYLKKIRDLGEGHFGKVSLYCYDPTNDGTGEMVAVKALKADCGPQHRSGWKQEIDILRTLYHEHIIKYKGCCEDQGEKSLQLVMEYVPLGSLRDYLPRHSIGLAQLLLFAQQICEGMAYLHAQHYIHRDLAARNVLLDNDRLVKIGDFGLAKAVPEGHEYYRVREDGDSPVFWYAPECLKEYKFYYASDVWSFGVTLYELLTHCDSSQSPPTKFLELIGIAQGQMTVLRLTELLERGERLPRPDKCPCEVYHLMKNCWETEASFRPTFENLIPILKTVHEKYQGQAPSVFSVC
Procedure, shortened: as §2

Sequence of JAK1 (P23458 850-1154): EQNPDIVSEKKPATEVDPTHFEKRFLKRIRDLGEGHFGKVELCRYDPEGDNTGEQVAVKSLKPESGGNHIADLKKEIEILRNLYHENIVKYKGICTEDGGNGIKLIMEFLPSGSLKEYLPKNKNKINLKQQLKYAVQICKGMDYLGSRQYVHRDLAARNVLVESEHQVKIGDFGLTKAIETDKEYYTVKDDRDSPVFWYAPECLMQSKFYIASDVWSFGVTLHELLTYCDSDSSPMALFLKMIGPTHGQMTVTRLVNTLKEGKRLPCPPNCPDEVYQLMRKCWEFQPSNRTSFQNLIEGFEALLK

SMILES | EC50 [1] [nM] | EC50 [2] [nM] | EC50 [3] [nM] | EC50 [4] [nM]
O=C(NCC1(O)CCCC1)C1CCN(c2ncnc3[nH]ccc23)CC12CC2 (stereo not shown) [Example 88, N-[(1-hydroxycyclopentyl)methyl]-5-(7H-pyrrolo[2,3-d]pyrimidin-4-yl)-5-azaspiro[2.5]octane-8-carboxamide] | 7.2 | 23.7 | 58.6 | 407
NS(=O)(=O)c1ccc(CNC(=O)C2CCN(c3ncnc4[nH]ccc34)CC23CC3)cc1 (stereo not shown) [Example 33, 5-(7H-pyrrolo[2,3-d]pyrimidin-4-yl)-N-[(4-sulfamoylphenyl)methyl]-5-azaspiro[2.5]octane-8-carboxamide] | 1.9 | 5 | 6 | 28.9
N#C[C@@H]1C[C@H]1CNC(=O)C1CCN(c2ncnc3[nH]ccc23)CC12CC2 (stereo partly drawn) [Example 102, N-[[(1R,2R)-2-cyanocyclopropyl]methyl]-5-(7H-pyrrolo[2,3-d]pyrimidin-4-yl)-5-azaspiro[2.5]octane-8-carboxamide] | 9.5 | 26.2 | 35 | 531
O=C(N[C@H](CO)C(=O)OCC1(CO)CCC1)[C@H]1CCN(c2ncnc3[nH]ccc23)CC12CC2 [Example 98, [1-(hydroxymethyl)cyclobutyl]methyl (2R)-3-hydroxy-2-[[(8S)-5-(7H-pyrrolo[2,3-d]pyrimidin-4-yl)-5-azaspiro[2.5]octane-8-carbonyl]amino]propanoate] | 8.8 | 15 | 44.3 | 177
O=C(N[C@@H](CO)c1ccccn1)[C@H]1CCN(c2ncnc3[nH]ccc23)CC12CC2 [Example 122, (8S)-N-[(1R)-2-hydroxy-1-(2-pyridyl)ethyl]-5-(7H-pyrrolo[2,3-d]pyrimidin-4-yl)-5-azaspiro[2.5]octane-8-carboxamide] | 16.3 | 37.3 | 153 | 203
O=C(N[C@H](CO)C(=O)OCc1ccccc1)[C@H]1CCN(c2ncnc3[nH]ccc23)CC12CC2 [Example 80, benzyl (2R)-3-hydroxy-2-[[(8S)-5-(7H-pyrrolo[2,3-d]pyrimidin-4-yl)-5-azaspiro[2.5]octane-8-carbonyl]amino]propanoate] | 6.7 | 21.8 | 24.3 | 119
O=C(NC[C@H](O)c1ccc(F)cn1)[C@H]1CCN(c2ncnc3[nH]ccc23)CC12CC2 [Example 46, (8S)-N-[(2S)-2-(5-fluoro-2-pyridyl)-2-hydroxy-ethyl]-5-(7H-pyrrolo[2,3-d]pyrimidin-4-yl)-5-azaspiro[2.5]octane-8-carboxamide] | 3.1 | 8.8 | 23.8 | 48.1
N#Cc1cccc([C@H](O)CNC(=O)[C@H]2CCN(c3ncnc4[nH]ccc34)CC23CC3)c1 [Example 106, (8S)-N-[(2S)-2-(3-cyanophenyl)-2-hydroxy-ethyl]-5-(7H-pyrrolo[2,3-d]pyrimidin-4-yl)-5-azaspiro[2.5]octane-8-carboxamide] | 10.2 | 25.2 | 44.7 | 110
O=C(OCc1ccccc1)[C@H](CO)NC(=O)[C@H]1CCN(c2ncnc3[nH]ccc23)CC12CC2 [Example 138, Benzyl (2S)-3-hydroxy-2-[[(8S)-5-(7H-pyrrolo[2,3-d]pyrimidin-4-yl)-5-azaspiro[2.5]octane-8-carbonyl]amino]propanoate] | 38.2 | 112 | 90.9 | 1100
C[C@H](NC(=O)[C@H]1CCN(c2ncnc3[nH]ccc23)CC12CC2)[C@@H](O)c1ccccn1 [Example 104, (8S)-N-[(1S,2R)-2-hydroxy-1-methyl-2-(2-pyridyl)ethyl]-5-(7H-pyrrolo[2,3-d]pyrimidin-4-yl)-5-azaspiro[2.5]octane-8-carboxamide] | 10.1 | 30.3 | 163 | 149
